Measured values reported in article PMC9987750, “Potent carbonic anhydrase I, II, IX and XII inhibition activity of novel primary benzenesulfonamides incorporating bis-ureido moieties” (Journal of Enzyme Inhibition and Medicinal Chemistry, 2023).

Key:
hCA XII = target: T1, hCA XII (Homo sapiens, UniProt O43570); assay: stopped flow CO2 hydrase assay, CA inhibition; format: biochemical; conditions: recombinant enzyme, pH 7.4, 10 min pre-incubation, from 3 different assays
T1 construct: made in house
Protocol: (§1) An SX.18 MV-R Applied Photophysics (Oxford, UK) stopped-flow instrument has been used to assay the catalytic/inhibition of various CA isozymes. […] Stock solutions of inhibitors were prepared at a concentration of 10 mM (in DMSO-water 1:1, v/v) and dilutions up to 0.01 nM done with the assay buffer mentioned above. […] Inhibitor and enzyme solutions were pre-incubated together for 10 min at room temperature prior to assay, in order to allow for the formation of the E-I complex. […] The inhibition constants were obtained by nonlinear least-squares methods using the Cheng-Prusoff equation, as reported earlier, and represent the mean from at least three different determinations.

hCA I = target: T2, hCA I (Homo sapiens, UniProt P00915); assay: stopped flow CO2 hydrase assay, CA inhibition; format: biochemical; conditions: recombinant enzyme, pH 7.4, 10 min pre-incubation, from 3 different assays
T2 construct: made in house
Protocol: as §1

hCA II = target: T3, hCA II (Homo sapiens, UniProt P00918); assay: stopped flow CO2 hydrase assay, CA inhibition; format: biochemical; conditions: recombinant enzyme, pH 7.4, 10 min pre-incubation, from 3 different assays
T3 construct: made in house
Protocol: as §1

hCA IX = target: T4, hCA IX (Homo sapiens, UniProt Q16790); assay: stopped flow CO2 hydrase assay, CA inhibition; format: biochemical; conditions: recombinant enzyme, pH 7.4, 10 min pre-incubation, from 3 different assays
T4 construct: made in house
Protocol: as §1

T1 sequence (O43570 25-354): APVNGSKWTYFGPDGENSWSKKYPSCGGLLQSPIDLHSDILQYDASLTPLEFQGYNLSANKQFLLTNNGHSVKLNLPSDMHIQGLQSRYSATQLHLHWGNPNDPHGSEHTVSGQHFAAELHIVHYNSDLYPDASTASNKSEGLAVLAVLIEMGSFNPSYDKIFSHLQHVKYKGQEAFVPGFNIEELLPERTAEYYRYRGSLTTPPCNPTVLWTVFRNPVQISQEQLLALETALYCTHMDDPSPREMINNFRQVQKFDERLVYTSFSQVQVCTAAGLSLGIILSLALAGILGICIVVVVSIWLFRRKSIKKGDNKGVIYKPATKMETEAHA
T2 sequence (P00915 whole entry): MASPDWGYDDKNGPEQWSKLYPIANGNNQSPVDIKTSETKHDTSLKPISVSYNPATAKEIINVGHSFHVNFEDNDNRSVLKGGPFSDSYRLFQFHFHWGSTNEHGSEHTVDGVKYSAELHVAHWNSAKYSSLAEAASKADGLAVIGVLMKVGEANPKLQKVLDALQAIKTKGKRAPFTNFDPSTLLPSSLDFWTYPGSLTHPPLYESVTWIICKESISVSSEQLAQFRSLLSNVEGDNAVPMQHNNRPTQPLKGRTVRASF

Row | Ki (hCA XII) [µM] | Ki (hCA I) [µM] | Ki (hCA II) [µM] | Ki (hCA IX) [µM] | melting point [°C] | SMILES
1 | 0.0336 | 5.35 | 0.792 | 0.0919 | 270 to 272 | NS(=O)(=O)c1ccc(CCNC(=O)Nc2ccc(Cc3ccc(NC(=O)NCCc4ccc(S(N)(=O)=O)cc4)cc3)cc2)cc1 [Compound 17, 4,4'-(((((Methylenebis(4,1-phenylene))bis(azanediyl))bis(carbonyl))bis(azanediyl))bis(ethane-2,1-diyl))dibenzenesulfonamide]
2 | 0.0603 | 8.31 | 0.604 | 0.0937 | > 300 | Cc1cc(-c2ccc(NC(=O)NCCc3ccc(S(N)(=O)=O)cc3)c(C)c2)ccc1NC(=O)NCCc1ccc(S(N)(=O)=O)cc1 [Compound 18, 4,4'-(((((3,3'-Dimethyl-[1,1'-biphenyl]-4,4'-diyl)bis(azanediyl))bis(carbonyl))bis(azanediyl))bis(ethane-2,1-diyl))dibenzenesulfonamide]
3 | 0.0523 | 0.947 | 0.302 | 0.0864 | > 300 | Cc1cc(-c2ccc(NC(=O)Nc3ccc(S(N)(=O)=O)cc3)c(C)c2)ccc1NC(=O)Nc1ccc(S(N)(=O)=O)cc1 [Compound 10, 4,4'-((((3,3'-Dimethyl-[1,1'-biphenyl]-4,4'-diyl)bis(azanediyl))bis(carbonyl))bis(azanediyl))dibenzenesulfonamide]
4 | 0.00502 | 0.0954 | 0.0258 | 0.00892 | 245 to 247 | Cc1ccc(NC(=O)NCCc2ccc(S(N)(=O)=O)cc2)cc1NC(=O)NCCc1ccc(S(N)(=O)=O)cc1 [Compound 19, 4,4'-(((((4-Methyl-1,3-phenylene)bis(azanediyl))bis(carbonyl))bis(azanediyl))bis(ethane-2,1-diyl))dibenzenesulfonamide]
5 | 0.0373 | 7.28 | 0.68 | 0.0575 | > 300 | NS(=O)(=O)c1ccc(NC(=O)Nc2ccc(NC(=O)Nc3ccc(S(N)(=O)=O)cc3)cc2)cc1 [Compound 8, 4,4'-(((1,4-Phenylenebis(azanediyl))bis(carbonyl))bis(azanediyl))dibenzenesulfonamide]
6 | 0.0671 | 5 | 0.0808 | 0.0811 | 233 to 234 | Cc1ccc(NC(=O)Nc2cccc(S(N)(=O)=O)c2)cc1NC(=O)Nc1cccc(S(N)(=O)=O)c1 [Compound 15, 3,3'-((((4-Methyl-1,3-phenylene)bis(azanediyl))bis(carbonyl))bis(azanediyl))dibenzenesulfonamide]
7 | 0.0828 | 2.91 | 0.424 | 0.0687 | > 300 | NS(=O)(=O)c1ccc(CCNC(=O)Nc2ccc(NC(=O)NCCc3ccc(S(N)(=O)=O)cc3)cc2)cc1 [Compound 16, 4,4'-((((1,4-Phenylenebis(azanediyl))bis(carbonyl))bis(azanediyl))bis(ethane-2,1-diyl))dibenzenesulfonamide]
8 | 0.0277 | 9.17 | 0.306 | 0.0787 | 293 to 295 | NS(=O)(=O)c1cccc(NC(=O)Nc2ccc(Cc3ccc(NC(=O)Nc4cccc(S(N)(=O)=O)c4)cc3)cc2)c1 [Compound 13, 3,3'-((((Methylenebis(4,1-phenylene))bis(azanediyl))bis(carbonyl))bis(azanediyl))dibenzenesulfonamide]
9 | 0.00739 | 0.0681 | 0.0044 | 0.00673 | 279 to 281 | Cc1ccc(NC(=O)Nc2ccc(S(N)(=O)=O)cc2)cc1NC(=O)Nc1ccc(S(N)(=O)=O)cc1 [Compound 11, 4,4'-((((4-Methyl-1,3-phenylene)bis(azanediyl))bis(carbonyl))bis(azanediyl))dibenzenesulfonamide]
10 | 0.0679 | 0.688 | 0.637 | 0.578 | > 300 | Cc1cc(-c2ccc(NC(=O)Nc3cccc(S(N)(=O)=O)c3)c(C)c2)ccc1NC(=O)Nc1cccc(S(N)(=O)=O)c1 [Compound 14, 3,3'-((((3,3'-Dimethyl-[1,1'-biphenyl]-4,4'-diyl)bis(azanediyl))bis(carbonyl))bis(azanediyl))dibenzenesulfonamide]
11 | 0.0632 | 6.52 | 0.55 | 0.0638 | > 300 | NS(=O)(=O)c1cccc(NC(=O)Nc2ccc(NC(=O)Nc3cccc(S(N)(=O)=O)c3)cc2)c1 [Compound 12, 3,3'-(((1,4-Phenylenebis(azanediyl))bis(carbonyl))bis(azanediyl))dibenzenesulfonamide]
12 | 0.429 | 6.28 | 0.484 | 0.835 | 293 to 294 | NS(=O)(=O)c1ccc(NC(=O)Nc2ccc(Cc3ccc(NC(=O)Nc4ccc(S(N)(=O)=O)cc4)cc3)cc2)cc1 [Compound 9, 4,4'-((((Methylenebis(4,1-phenylene))bis(azanediyl))bis(carbonyl))bis(azanediyl))dibenzenesulfonamide]
